{
  "source": "paper PMC11774580",
  "about": "(Chemosphere, 2024)",
  "key": {"[1]": {"test_system": "MDCKII-LE cell monolayers", "assay": "Apparent permeability", "conditions": "donor pH 7.4, receiver pH 7.4; 2 μM PFAS; 90 min; 0.4% BSA in receiver"}, "human OAT1 [2]": {"molecular_target": "T1, human OAT1 (Homo sapiens, UniProt Q4U2R8)", "T1 sequence (Q4U2R8 1-563)": "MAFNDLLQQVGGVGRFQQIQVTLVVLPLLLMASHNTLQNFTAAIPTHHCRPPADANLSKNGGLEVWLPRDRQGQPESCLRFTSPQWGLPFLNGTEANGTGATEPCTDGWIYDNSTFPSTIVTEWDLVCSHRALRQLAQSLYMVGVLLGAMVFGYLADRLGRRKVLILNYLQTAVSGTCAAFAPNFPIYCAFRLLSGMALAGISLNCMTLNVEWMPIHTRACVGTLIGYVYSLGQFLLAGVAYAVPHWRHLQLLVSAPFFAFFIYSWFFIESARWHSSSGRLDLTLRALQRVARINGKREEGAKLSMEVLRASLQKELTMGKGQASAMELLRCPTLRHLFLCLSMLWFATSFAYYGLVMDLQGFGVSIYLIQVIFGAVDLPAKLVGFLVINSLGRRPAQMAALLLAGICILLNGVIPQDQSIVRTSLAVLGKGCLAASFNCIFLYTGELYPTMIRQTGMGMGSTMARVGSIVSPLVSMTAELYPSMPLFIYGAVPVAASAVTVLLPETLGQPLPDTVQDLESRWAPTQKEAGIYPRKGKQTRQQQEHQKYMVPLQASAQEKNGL", "assay": "hOAT1 substrate"}, "human OAT4": {"molecular_target": "T2, human OAT4 (Homo sapiens, UniProt Q9NSA0)", "T2 sequence (Q9NSA0 1-550)": "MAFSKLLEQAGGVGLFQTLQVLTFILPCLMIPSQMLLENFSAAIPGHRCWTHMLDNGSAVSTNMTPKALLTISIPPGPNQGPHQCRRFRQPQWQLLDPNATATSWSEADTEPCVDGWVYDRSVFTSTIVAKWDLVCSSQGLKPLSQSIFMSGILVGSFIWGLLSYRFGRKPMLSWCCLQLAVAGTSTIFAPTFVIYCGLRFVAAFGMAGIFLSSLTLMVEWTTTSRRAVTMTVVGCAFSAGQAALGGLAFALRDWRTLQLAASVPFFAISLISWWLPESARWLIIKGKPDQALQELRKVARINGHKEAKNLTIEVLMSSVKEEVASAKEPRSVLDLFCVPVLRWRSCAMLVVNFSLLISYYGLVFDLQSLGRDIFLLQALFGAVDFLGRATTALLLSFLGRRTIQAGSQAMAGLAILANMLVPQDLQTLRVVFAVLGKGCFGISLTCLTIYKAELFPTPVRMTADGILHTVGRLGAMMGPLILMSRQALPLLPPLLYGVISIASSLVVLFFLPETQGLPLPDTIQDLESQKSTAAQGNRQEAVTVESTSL", "assay": "hOAT4 substrate", "format": "in vitro ADME", "conditions": "for hOAT4 uptake ratio, fold: 1 μM PFAS screen; for Transporter Uptake Ratio OAT4: 1 μM PFAS, threshold ≥ 2-fold; for Effect of probenecid co-treatment on hOAT4-mediated uptake: probenecid 1 mM"}, "human OAT3 [3]": {"molecular_target": "T3, human OAT3 (Homo sapiens, UniProt Q8TCC7)", "T3 sequence (Q8TCC7 1-542)": "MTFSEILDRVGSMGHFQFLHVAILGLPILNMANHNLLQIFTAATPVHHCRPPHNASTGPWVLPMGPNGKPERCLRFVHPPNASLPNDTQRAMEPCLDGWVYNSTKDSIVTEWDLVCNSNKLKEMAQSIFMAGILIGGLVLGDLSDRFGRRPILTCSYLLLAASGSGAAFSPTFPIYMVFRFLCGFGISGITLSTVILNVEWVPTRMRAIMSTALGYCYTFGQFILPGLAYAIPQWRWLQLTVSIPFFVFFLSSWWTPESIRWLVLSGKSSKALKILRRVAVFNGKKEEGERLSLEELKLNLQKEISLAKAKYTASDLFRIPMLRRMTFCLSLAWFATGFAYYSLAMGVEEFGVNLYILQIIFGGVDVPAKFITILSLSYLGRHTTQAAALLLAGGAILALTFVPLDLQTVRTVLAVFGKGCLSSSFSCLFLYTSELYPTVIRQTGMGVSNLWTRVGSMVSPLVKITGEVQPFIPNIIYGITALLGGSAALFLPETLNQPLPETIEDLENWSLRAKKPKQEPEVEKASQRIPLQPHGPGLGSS", "assay": "OAT3 inhibition assay"}, "human OAT3 [4]": {"molecular_target": "T3, human OAT3", "assay": "hOAT3 substrate", "conditions": "for Transporter Uptake Ratio OAT3: 1 μM PFAS, threshold ≥ 2-fold; for hOAT3-mediated uptake, fold: follow-up test, without probenecid; for Effect of probenecid cotreatment on hOAT3-mediated uptake: probenecid 1 mM"}, "human OAT1 [5]": {"molecular_target": "T1, human OAT1", "assay": "OAT1 inhibition assay"}, "[6]": {"conditions": "read-out: IC50 hOAT3 inhibition, probe [3H]-ES 0.1 μM, 30 min pre-incubation"}},
  "note": "Like-named read-outs stand apart in the source and are kept apart here.",
  "data": [
    {"smiles": "O=S(=O)(O)CCC(F)(F)C(F)(F)C(F)(F)C(F)(F)C(F)(F)C(F)(F)F", "note": "[6:2FTS, 6:2 fluorotelomer sulfonate]", "values": [
      {"measurement": "Ph 7.4 A-B Papp", "setting": "[1]", "result": 0.71, "unit": "×10⁻⁶ cm/s"},
      {"measurement": "Transporter Uptake Ratio OAT1", "setting": "human OAT1 [2]; 1 μM PFAS, threshold ≥ 2-fold", "result": "+ (denoted with a “+” to denote a threshold of ≥ 2-fold has been met and considered a substrate for the transporter)"},
      {"measurement": "hOAT-mediated uptake (Fig. 3A, OAT1), fold", "setting": "human OAT1 [2]; follow-up test, without probenecid", "result": "~ 4 fold"},
      {"measurement": "hOAT4 uptake ratio, fold", "setting": "human OAT4", "result": "greater than 2 fold"},
      {"measurement": "Transporter Uptake Ratio OAT4", "setting": "human OAT4", "result": "+ (denoted with a “+” to denote a threshold of ≥ 2-fold has been met and considered a substrate for the transporter)"},
      {"measurement": "IC50", "setting": "human OAT3 [3]; [6]", "result": 11.3, "unit": "µM"},
      {"measurement": "hOAT3 uptake ratio, fold higher than mock transfected controls", "setting": "human OAT3 [4]; 1 μM PFAS screen", "result": "2.5–12 fold"},
      {"measurement": "Transporter Uptake Ratio OAT3", "setting": "human OAT3 [4]", "result": "+ (denoted with a “+” to denote a threshold of ≥ 2-fold has been met and considered a substrate for the transporter)"},
      {"measurement": "hOAT3-mediated uptake, fold", "setting": "human OAT3 [4]", "result": "2.5–15 fold"}
    ]},
    {"smiles": "O=C(O)C(F)(F)C(F)(F)C(F)(F)F", "note": "[PFBA, Perfluorobutanoic acid]", "values": [
      {"measurement": "Ph 7.4 A-B Papp", "setting": "[1]", "result": 0.93, "unit": "×10⁻⁶ cm/s"},
      {"measurement": "Some level of inhibition against hOAT3 mediated transport", "setting": "human OAT3 [3]", "result": "the only exceptions"},
      {"measurement": "Some level of inhibition against hOAT1 mediated transport", "setting": "human OAT1 [5]", "result": "the only exceptions"},
      {"measurement": "hOAT3 substrate classification", "setting": "human OAT3 [4]", "result": "weak substrate"},
      {"measurement": "hOAT3 uptake ratio, % higher than mock transfectants", "setting": "human OAT3 [4]; 1 μM PFAS screen", "result": "30–50%"},
      {"measurement": "hOAT3 uptake ratio", "setting": "human OAT3 [4]; statistically significant, below 2-fold cut-off", "result": 1.5}
    ]},
    {"smiles": "O=S(=O)(O)C(F)(F)C(F)(F)C(F)(F)C(F)(F)C(F)(F)C(F)(F)F", "note": "[PFHxS, perfluorohexane sulfonic acid]", "values": [
      {"measurement": "OAT4 substrate classification", "setting": "human OAT4", "result": "strong substrates"},
      {"measurement": "hOAT4 uptake ratio, fold", "setting": "human OAT4", "result": "greater than 2 fold"},
      {"measurement": "Transporter Uptake Ratio OAT4", "setting": "human OAT4", "result": "+ (denoted with a “+” to denote a threshold of ≥ 2-fold has been met and considered a substrate for the transporter)"},
      {"measurement": "Fold difference in OAT4 uptake ratio between PFHxS and PFOS", "setting": "human OAT4; PFHxS versus PFOS", "result": "~ 2.5 fold"},
      {"measurement": "Effect of probenecid co-treatment on hOAT4-mediated uptake", "setting": "human OAT4", "result": "not inhibited"},
      {"measurement": "IC50", "setting": "human OAT3 [3]", "result": 10.3, "unit": "µM"},
      {"measurement": "hOAT3 uptake ratio, fold higher than mock transfected controls", "setting": "human OAT3 [4]; 1 μM PFAS screen", "result": "2.5–12 fold"},
      {"measurement": "Transporter Uptake Ratio OAT3", "setting": "human OAT3 [4]", "result": "+ (denoted with a “+” to denote a threshold of ≥ 2-fold has been met and considered a substrate for the transporter)"},
      {"measurement": "hOAT3-mediated uptake, fold", "setting": "human OAT3 [4]", "result": "2.5–15 fold"},
      {"measurement": "Effect of probenecid cotreatment on hOAT3-mediated uptake", "setting": "human OAT3 [4]", "result": "markedly inhibited"}
    ]},
    {"smiles": "O=C(O)C(F)(F)C(F)(F)C(F)(F)C(F)(F)C(F)(F)C(F)(F)C(F)(F)C(F)(F)F", "note": "[PFNA, perfluorononanoic acid]", "values": [
      {"measurement": "Ph 7.4 A-B Papp", "setting": "[1]", "result": 3.77, "unit": "×10⁻⁶ cm/s"},
      {"measurement": "OAT4 substrate classification", "setting": "human OAT4", "result": "strong substrates"},
      {"measurement": "hOAT4 uptake ratio, fold", "setting": "human OAT4", "result": "greater than 2 fold"},
      {"measurement": "Transporter Uptake Ratio OAT4", "setting": "human OAT4", "result": "+ (denoted with a “+” to denote a threshold of ≥ 2-fold has been met and considered a substrate for the transporter)"},
      {"measurement": "Effect of probenecid co-treatment on hOAT4-mediated uptake", "setting": "human OAT4", "result": "effectively inhibited"},
      {"measurement": "IC50", "setting": "human OAT3 [3]; [6]", "result": 9.8, "unit": "µM"},
      {"measurement": "hOAT3 uptake ratio, fold higher than mock transfected controls", "setting": "human OAT3 [4]; 1 μM PFAS screen", "result": "2.5–12 fold"},
      {"measurement": "Transporter Uptake Ratio OAT3", "setting": "human OAT3 [4]", "result": "+ (denoted with a “+” to denote a threshold of ≥ 2-fold has been met and considered a substrate for the transporter)"},
      {"measurement": "hOAT3-mediated uptake, fold", "setting": "human OAT3 [4]", "result": "2.5–15 fold"},
      {"measurement": "Effect of probenecid cotreatment on hOAT3-mediated uptake", "setting": "human OAT3 [4]", "result": "markedly inhibited"}
    ]},
    {"smiles": "O=C(O)C(F)(F)C(F)(F)C(F)(F)C(F)(F)C(F)(F)C(F)(F)C(F)(F)F", "note": "[PFOA, perfluorooctanoic acid]", "values": [
      {"measurement": "Ph 7.4 A-B Papp", "setting": "[1]", "result": 1.46, "unit": "×10⁻⁶ cm/s"},
      {"measurement": "hOAT1 uptake ratio, % higher than controls", "setting": "human OAT1 [2]; 1 μM PFAS screen", "result": "5–60%"},
      {"measurement": "OAT4 substrate classification", "setting": "human OAT4", "result": "strong substrates"},
      {"measurement": "hOAT4 uptake ratio, fold", "setting": "human OAT4", "result": "greater than 2 fold"},
      {"measurement": "Transporter Uptake Ratio OAT4", "setting": "human OAT4", "result": "+ (denoted with a “+” to denote a threshold of ≥ 2-fold has been met and considered a substrate for the transporter)"},
      {"measurement": "Effect of probenecid co-treatment on hOAT4-mediated uptake", "setting": "human OAT4", "result": "effectively inhibited"},
      {"measurement": "IC50", "setting": "human OAT3 [3]", "result": 8.9, "unit": "µM"},
      {"measurement": "IC50", "setting": "human OAT1 [5]", "result": "51.4 to 166", "unit": "µM"},
      {"measurement": "hOAT3 uptake ratio, fold higher than mock transfected controls", "setting": "human OAT3 [4]; 1 μM PFAS screen", "result": "2.5–12 fold"},
      {"measurement": "Transporter Uptake Ratio OAT3", "setting": "human OAT3 [4]", "result": "+ (denoted with a “+” to denote a threshold of ≥ 2-fold has been met and considered a substrate for the transporter)"},
      {"measurement": "hOAT3-mediated uptake, fold", "setting": "human OAT3 [4]", "result": "2.5–15 fold"},
      {"measurement": "Effect of probenecid cotreatment on hOAT3-mediated uptake", "setting": "human OAT3 [4]", "result": "markedly inhibited"}
    ]}
  ]
}
